Results reported in paper PMC9849758, “Chemically diverse activity-based probes with unexpected inhibitory mechanisms targeting trypsin-like serine proteases” (Frontiers in Chemistry, 2023).
Entries after “also recorded” stand apart in the source; their conditions may differ. Where a name gives a salt, the structure may show the parent alone.

What was measured:
Trypsin-3 = target: T1, Trypsin-3 (Homo sapiens, UniProt P35030); assay: Labeling and detection of recombinant proteases (SDS-PAGE blot, NeutrAvidin-HRP); format: binding; settings: 1 µM ABP, 100 ng protease, 30 min 37°C, denaturing SDS-PAGE blot
T1 sequence (P35030 1-304): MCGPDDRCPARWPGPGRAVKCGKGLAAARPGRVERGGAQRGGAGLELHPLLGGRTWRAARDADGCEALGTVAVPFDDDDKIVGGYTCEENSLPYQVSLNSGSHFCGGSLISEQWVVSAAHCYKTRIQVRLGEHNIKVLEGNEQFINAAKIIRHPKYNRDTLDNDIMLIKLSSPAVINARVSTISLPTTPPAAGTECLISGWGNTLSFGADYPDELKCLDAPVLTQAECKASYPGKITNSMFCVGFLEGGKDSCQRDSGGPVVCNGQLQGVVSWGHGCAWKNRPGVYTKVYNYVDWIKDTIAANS
Description: (§1) Recombinant proteases (100 ng) were labeled with 1 µM ABP in reaction buffer in a final volume of 40 µL for 30 min at 37°C. After the addition of 4X Laemmli buffer (Bio-Rad, GmbH) supplemented with Bond-Breaker Tris (2-CarboxyEthyl)Phosphine (TCEP) Solution (Thermo Scientific, United States), the samples were heated at 95°C for 5 min and loaded into 4%–20% Mini-Protean TGX precast gels (Bio-Rad, GmbH). After electrophoresis, the proteins were blotted onto nitrocellulose membranes using the Trans-Blot Transfer Turbo System (Bio-Rad). Membranes were incubated with NeutrAvidin-HRP (1:50,000), and bands were visualized with ECL Select Western Blot Detection Reagent (GE Healthcare Life Sciences) by chemiluminescence (Chemidoc XRS; Bio-Rad). The molecular weight of each band was determined with the Image Lab Software v5 (Bio-Rad).
(§2) To further characterize the newly synthesized compounds and their potential to be used as ABPs, nine desthiobiotin probes were used for the labeling and detection of recombinant proteases. The arginine (45b–46b) and the proline-lysine (58b) desthiobiotin probes were used as reference compounds. Whereas the benzyl guanidine (50b, 52b, 54b) and phenyl guanidine probes (55b–57b) were used to determine whether the mechanism of inhibition (reversible or irreversible) is an obstacle to visualize the proteases. Samples of human recombinant proteases (trypsin-3, β-tryptase, and CatG) were incubated with the different probes before electrophoresis and detection with NeutrAvidin-HRP on a Western blot. Figure 7A illustrates the ability of the desthiobiotin probes to indicate the presence of the corresponding trypsin-like enzyme. […] This effect can be explained due to the strong interactions between the active site of the protease and the probes. The high affinity and the slow off-rates were described in Table 5 by the equilibrium constants KI*. Assuming that there is an excess of inhibitor over enzyme, the free inhibitor concentration must be very low, lower than the KI*, in order for the complex to dissociate. Therefore, the high affinity complex E*I survives during the whole process of labeling, gel electrophoresis, and visualization.

CatG = target: T2, CatG (Homo sapiens, UniProt P08311); assay: as above; format: binding; settings: 1 µM ABP, 100 ng protease, 30 min 37°C, denaturing SDS-PAGE blot
T2 sequence (P08311 21-255): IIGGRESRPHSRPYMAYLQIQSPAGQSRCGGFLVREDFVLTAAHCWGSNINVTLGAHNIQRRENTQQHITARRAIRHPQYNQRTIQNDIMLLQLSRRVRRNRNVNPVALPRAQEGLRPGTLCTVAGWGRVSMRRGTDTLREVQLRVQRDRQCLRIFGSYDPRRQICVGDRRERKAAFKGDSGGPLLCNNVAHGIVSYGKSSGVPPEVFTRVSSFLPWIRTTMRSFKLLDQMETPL
Description: as §1, §2

[1] = system: proteases in human mast cell supernatants; assay: Labeling of mast cell supernatants, functional proteomic profiling; settings: 1 µM ABP, 10 µg total protein, two donors, IgE/DNP stimulated and non-stimulated
Description: Peripheral blood mononuclear cells (PBMCs) were obtained from buffy coats (Etablissement Français du Sang). CD34^+ precursors cells were isolated from PBMCs (EasySep™ Human CD34 Positive Selection Kit, STEMCELL Technologies) and grown under serum-free conditions using StemSpanTM medium (STEMCELL Technologies) supplemented with recombinant human IL-6 (50 ng/ml; Peprotech), human IL-3 (10 ng/ml; Peprotech) and 3% supernatant of CHO transfectants secreting murine SCF (a gift from Dr. P. Dubreuil, Marseille, France, 3% correspond to ∼50 ng/ml SCF) for 1 week. Cells were next grown in IMDM Glutamax I, sodium pyruvate, 2-mercaptoethanol, .5% BSA, Insulin-transferrin selenium (all from Invitrogen), penicillin (100 U/ml), streptomycin (100 μg/ml) and 3% supernatant of CHO transfectants secreting murine SCF for 8 weeks then tested phenotypically (CD117+, FcεRI+) and functionally (β-hexosaminidase release in response to FcεRI crosslinking) before use for experiments. Only primary cell lines showing more than 95% CD117+/FcεRI+ cells were used for experiments.
1 × 10^5 mast cells were distributed in 50 µl Tyrode’s Buffer and adapted to 37°C for 30 min. Mast cells were next stimulated with DNP-BSA (200 ng/ml) after sensitization with 1 μg/ml of IgE anti DNP (Sigma-Aldrich) overnight. Supernatants were harvested and stored at −80°C. (β-hexosaminidase was assayed by measuring the release of p-nitrophenol from the substrate p-nitrophenyl N-acetyl-β-D-glucosaminide).
Mast cell supernatants (10 µg of total protein) were labeled with 1 µM individual ABPs (46b, 52b, or 57b) in 50 mM Tris, 120 mM NaCl, .1 mg/ml BSA, 50 μg/ml heparin, pH 8 at 25°C (Sigma-Aldrich) in a final volume of 500 µL. […] The molecular weight of each band was determined with the Image Lab Software v5 (Bio-Rad) with Dual Color Protein Precision Plus Standard (10–250 kDa; Bio-Rad) as reference. […]

Compound | labeling of recombinant trypsin-3 (Trypsin-3) | labeling of recombinant CatG (CatG) | labeling of proteases in mast cell supernatants [1]
CC(=O)Nc1ccc(OP(=O)(Oc2ccc(NC(C)=O)cc2)C(Cc2ccc(NC(=N)N)cc2)NC(=O)OCCCc2cn(CCOCCOCCOCCNC(=O)CCCCC[C@H]3NC(=O)N[C@H]3C)nn2)cc1 (stereo partly drawn) [52b] | can label | can label | –
C[C@@H]1NC(=O)N[C@@H]1CCCCCC(=O)NCCOCCOCCOCCn1cc(CCCOC(=O)NC(c2ccc(NC(=N)N)cc2)P(=O)(Oc2ccc(Cl)cc2)Oc2ccc(Cl)cc2)nn1 (stereo partly drawn) [57b] | – | – | can label proteases in a complex proteome
C[C@@H]1NC(=O)N[C@@H]1CCCCCC(=O)NCCOCCOCCOCCn1cc(CCCOC(=O)NC(Cc2ccc(NC(=N)N)cc2)P(=O)(Oc2ccccc2)Oc2ccccc2)nn1 (stereo partly drawn) [50b, 3-(1-(18-((4R,5S)-5-methyl-2-oxoimidazolidin-4-yl)-13-oxo-3,6,9-trioxa-12-azaoctadecyl)-1H-1,2,3-triazol-4-yl)propyl (1-(diphenoxyphosphoryl)-2-(4-guanidinophenyl)ethyl)carbamate trifluoroacetate salt] | can label | can label | –
C[C@@H]1NC(=O)N[C@@H]1CCCCCC(=O)NCCOCCOCCOCCn1cc(CCCOC(=O)NC(CCCNC(=N)N)P(=O)(Oc2ccc(Cl)cc2)Oc2ccc(Cl)cc2)nn1 (stereo partly drawn) [46b] | – | – | can label proteases in a complex proteome
C[C@@H]1NC(=O)N[C@@H]1CCCCCC(=O)NCCOCCOCCOCCn1cc(CCCOC(=O)NC(Cc2ccc(NC(=N)N)cc2)P(=O)(Oc2ccc(Cl)cc2)Oc2ccc(Cl)cc2)nn1 (stereo partly drawn) [54b] | can label | can label | can label proteases in a complex proteome; also recorded: best resolution
